Results on 3 molecules are retold here after patent US20050249808A1, “NSAIDs compositions containing tartaric acid” (priority 2001, published 2005).

The conditions of series [1]: parts of drug dissolving in 10,000 parts of water; cited from earlier work.
The nature of series [2]: Oral bioavailability of ibuprofen crushed tablets in control rats. Conditions: male, Sprague-Dawley, rat, plasma, 20 mg/kg, oral 20 mg/kg ibuprofen as crushed tablets, read-out: AUC (0-8). In kind it is in vivo. As to the method:
The animal models are Adult male Sprague-Dawley rats with body weight of 250-300 g, and which were cared for in accordance with the principles and guidelines of the Canadian Council of Animal Care. All rats were catheterized in the right jugular vein for sample collection.
The tablets were crushed gently and small pieces were administered into the stomach via a plastic tube followed by 0.5 mL tap water. […] They had free access to water.

The conditions of series [3]: cited from earlier work; for AUC0-2h: 600 mg ibuprofen dose.

Molecules are shown by their SMILES. Where two headings read alike, the source gives them in different places.

As for `CC(C)Cc1ccc(C(C)C(=O)O)cc1` (racemic) [ibuprofen, (±)-2-(4-Isobutylphenyl)propionic acid], the solubility in water result in series [1] is listed as “less than 1 part”. The AUC(0-t) in series [2] stood at 139000 ng·h/mL. In series [3] (200 mg and 600 mg doses, dental surgery), the “change in mean time to peak concentration caused by surgery” value is reported as “two hour delay”. In addition, the “AUC0-6h, effect of surgery” value in series [3] (dental surgery) is on record as “significantly reduced”.

For `CC(C)Cc1ccc([C@@H](C)C(=O)O)cc1` [R-ibuprofen, R(−)-2-(4-isobutylphenyl)propionic acid], the AUC0-2h in series [3] (after dental extraction) is 5800 ± 7100 ng·h/mL; in series [3] (before dental extraction) it was 14400 ± 9500 ng·h/mL.

Turning to `CC(C)Cc1ccc([C@H](C)C(=O)O)cc1` [S-ibuprofen, S(+)-2-(4-isobutylphenyl)propionic acid], the AUC0-2h is 7200 ± 5500 ng·h/mL in series [3] (after dental extraction) and 14200 ± 6100 ng·h/mL in series [3] (before dental extraction).
